# Reference: patent US20250144131A1, “POLYSACCHARIDE COMPOUND WITH A DEFINED MOLECULAR STRUCTURE FOR THE TREATMENT OF PULMONARY FIBROSIS” (SHENZHEN YANDAI INVESTMENT CO., LTD, priority 2023, published 2025)
# What was measured:
# [1] = set-up: species or system C57 mice; conditions: mouse, in vivo, 130 mg/kg
# Method: Spleen and thymus organ coefficients: After the last dose, spleen, thymus, and tumor weights are measured, and organ coefficients are calculated. organ coefficient (%)=organ weight/fasting body weight×100%.
# [2] = Hematological and liver/kidney function tests (WBC, RBC, ALT, AST, BUN, CRE) in LLC-bearing mice
# Method: LLC cells in logarithmic growth phase at 1×10^7/mL were inoculated at 0.2 mL into the right axilla of 10 purchased normal male C57 mice. Tumor growth was monitored, and tumor-bearing mice were prepared. Once the tumor volume in tumor-bearing mice exceeded 200 mm^3, the tumor tissue was aseptically harvested to prepare a tissue cell suspension. This was mixed at a 1:1 (V:V) ratio with culture medium to create a tumor tissue homogenate. This homogenate was injected into the right axilla of 60 male C57 mice at 0.2 mL per mouse. When the tumor volume in these tumor-bearing mice exceeded 100 mm^3, mice with well-grown tumors without ulceration were selected and randomized into groups based on tumor volume as follows: model control group, cisplatin group (4 mg/kg), Kanglaite soft capsule group (1,404 mg/kg), cisplatin+Kanglaite soft capsule group (4+1,404 mg/kg), cisplatin+GLP-4 low-dose group (4+130 mg/kg), and cisplatin+GLP-4 high-dose group (4+1,170 mg/kg), with 8 mice per group. Additionally, 8 mice were selected as a normal control group. The cisplatin group received intraperitoneal injections of cisplatin, and the other groups were administered their respective drug solutions by gavage (20 mL/kg) or intraperitoneal injection (10 mL/kg), once daily for 27 consecutive days. After the last dose, blood was collected from the orbital plexus to test blood WBC, RBC, liver and kidney function indicators (ALT, AST, BUN, CRE), and CD3^+, CD4^+, and CD8^+ levels. Bone marrow smears were examined, and spleens, thymuses, and tumors were weighed. Histopathological examinations were conducted on the tumor, spleen, stomach, and kidneys.
# Hematological tests: Blood samples for routine blood tests (WBC and RBC) and liver and kidney function tests (BUN and CRE) were collected from the orbital plexus after the last dose.
# [3] = test system: CD4+ and CD8+ lymphocyte subtypes; experiment: Blood CD3+/CD4+ and CD3+/CD8+ ratios by flow cytometry in orthotopic H22-bearing mice; assay type: in vivo, C57 mice; conditions: cisplatin 4 mg/kg, Kanglaite soft capsule 1404 mg/kg
# Method: CD4^+ and CD8^+ content measurement: After the last dose, lymphocyte subtypes CD3^+/CD4^+ and CD3^+/CD8^+ in the blood were measured using flow cytometry.
# LLC tumors = experiment: Antitumor effect in LLC-bearing mice (tumor volume, relative tumor volume, T/C, tumor coefficient, tumor growth inhibition rate); assay type: in vivo, C57 mice
# Description: Tumor volume measurement: […] Relative tumor volume (RTV)=TVt/TV0, where TV0 is the tumor volume at the time of administration, and TVt is the tumor volume at each measurement. Relative tumor growth rate T/C (%)=TRTV/CRTV×100%, where TRTV is the RTV for the treatment group and CRTV is the RTV for the control group. Tumor growth inhibition rate (%)=(model control group tumor weight−treatment group tumor weight)/model control group tumor weight×100%.
# [4] = test system: H22 hepatoma solid tumors; experiment: Antitumor effect in H22-bearing mice (tumor volume, relative tumor growth inhibition rate, tumor index, tumor growth inhibition rate); assay type: in vivo, C57 mice
# Method: Longest and shortest diameters of tumors were measured every three days to calculate tumor volume, and mouse weights were recorded every three days. At the end of the experiment, tumors, spleens, and thymuses were harvested and weighed to calculate tumor, spleen, and thymus indices. […] Where TRTV is the relative tumor volume in the experimental group, and CRTV is the relative tumor volume in the model control group. Relative tumor volume (RTV)=Vt/V0, where Vt is the tumor volume on day t of dosing, and V0 is the tumor volume at the time of grouping. Evaluation criteria: […] Where T represents the average tumor weight in the treatment group, and C represents the average tumor weight in the model control group. Evaluation criteria: […]
# [5] = D4, cisplatin 4, Kanglaite 1404, GLP-4 low-dose 130 mg/kg
# [6] = D7, cisplatin 4, Kanglaite 1404, GLP-4 low-dose 130 mg/kg
# [7] = D10, cisplatin 4, Kanglaite 1404, GLP-4 low-dose 130 mg/kg
# [8] = D13, cisplatin 4, Kanglaite 1404, GLP-4 low-dose 130 mg/kg
# [9] = D16, cisplatin 4, Kanglaite 1404, GLP-4 low-dose 130 mg/kg
# [10] = D19, cisplatin 4, Kanglaite 1404, GLP-4 low-dose 130 mg/kg
# [11] = D22, cisplatin 4, Kanglaite 1404, GLP-4 low-dose 130 mg/kg
# [12] = D25, cisplatin 4, Kanglaite 1404, GLP-4 low-dose 130 mg/kg
smiles,measurement,setting,value
"N.N.[Cl][Pt][Cl] [Cisplatin, cisplatin]",Spleen coefficient,[1],0.456 ± 0.102 ^ %
same,Thymus coefficient,[1],0.044 ± 0.020 %
same,ALT,"[2]; LLC-bearing mice, blood after last dose, cisplatin 4, Kanglaite 1404, GLP-4 low-dose 130 mg/kg",58.25 U/L
same,AST,"[2]; mouse, in vivo, 130 mg/kg",393.25 U/L
same,BUN,"[2]; mouse, in vivo, 130 mg/kg",7.91 mmol/L
same,CRE,"[2]; mouse, in vivo, 130 mg/kg",20.45 µmol/L
same,RBC,"[2]; mouse, in vivo, 130 mg/kg",6.01 ± 10^12/L
same,WBC,"[2]; mouse, in vivo, 130 mg/kg",11.09 ± 10^9/L
same,CD3^+/CD4^+,[3],4.26 ± 0.04
same,CD3^+/CD8^+,[3],4.21 ± 0.81
same,Tumor volume,"LLC tumors; D1, cisplatin 4, Kanglaite 1404, GLP-4 low-dose 130 mg/kg",94.99 ± 11.16
same,Relative tumor growth rate (T/C),LLC tumors; [5],81.4%
same,Relative tumor volume,LLC tumors; [5],1.84
same,Tumor volume,LLC tumors; [5],150.58 ± 34.35
same,Relative tumor growth rate (T/C),LLC tumors; [6],45.5%
same,Relative tumor volume,LLC tumors; [6],0.10
same,Relative tumor growth rate (T/C),LLC tumors; [7],27.3%
same,Relative tumor volume,LLC tumors; [7],0.09
same,Relative tumor growth rate (T/C),LLC tumors; [8],70.2%
same,Relative tumor volume,LLC tumors; [8],0.40
same,Tumor volume,LLC tumors; [8],27.36 ± 24.4
same,Relative tumor growth rate (T/C),LLC tumors; [9],28.2%
same,Relative tumor volume,LLC tumors; [9],0.51
same,Relative tumor growth rate (T/C),LLC tumors; [10],36.9%
same,Relative tumor volume,LLC tumors; [10],0.97
same,Relative tumor growth rate (T/C),LLC tumors; [11],30.9%
same,Relative tumor volume,LLC tumors; [11],10.62
same,Relative tumor growth rate (T/C),LLC tumors; [12],23.6%
same,Relative tumor volume,LLC tumors; [12],12.10
same,Tumor coefficient,"LLC tumors; after last dose, cisplatin 4, Kanglaite 1404, GLP-4 low-dose 130 mg/kg",7.528 ± 2.567 ^ %
same,Tumor growth inhibition rate,"LLC tumors; tumor weight vs model control, cisplatin 4, Kanglaite 1404, GLP-4 low-dose 130 mg/kg",61.6%
same,Relative tumor growth inhibition rate (compared to model control group),"[4]; D3, cisplatin 3, GLP-4 low-dose 50 mg/kg",32.9%
same,Relative tumor growth inhibition rate (compared to model control group),"[4]; D6, cisplatin 3, GLP-4 low-dose 50 mg/kg",39.7%
same,Relative tumor growth inhibition rate (compared to model control group),"[4]; D9, cisplatin 3, GLP-4 low-dose 50 mg/kg, 50 mg/kg",66.5^+ %
same,Relative tumor growth inhibition rate (compared to model control group),"[4]; D9, cisplatin 3, GLP-4 low-dose 50 mg/kg, listed as cisplatin, 50 mg/kg",66.5%
same,Relative tumor growth inhibition rate (compared to model control group),"[4]; D12, cisplatin 3, GLP-4 low-dose 50 mg/kg, 50 mg/kg",70.6^+ %
same,Relative tumor growth inhibition rate (compared to model control group),"[4]; D12, cisplatin 3, GLP-4 low-dose 50 mg/kg, listed as cisplatin, 50 mg/kg",70.6%
same,Relative tumor growth inhibition rate (compared to model control group),"[4]; D15, cisplatin 3, GLP-4 low-dose 50 mg/kg, 50 mg/kg",69.1^+ %
same,Relative tumor growth inhibition rate (compared to model control group),"[4]; D15, cisplatin 3, GLP-4 low-dose 50 mg/kg, listed as cisplatin, 50 mg/kg",69.1%
same,Relative tumor growth inhibition rate (compared to model control group),"[4]; D18, cisplatin 3, GLP-4 low-dose 50 mg/kg, 50 mg/kg",81.3^+ %
same,Relative tumor growth inhibition rate (compared to model control group),"[4]; D18, cisplatin 3, GLP-4 low-dose 50 mg/kg, listed as cisplatin, 50 mg/kg",81.3%
same,Relative tumor growth inhibition rate (compared to model control group),"[4]; D21, cisplatin 3, GLP-4 low-dose 50 mg/kg, 50 mg/kg",83.9^+ %
same,Relative tumor growth inhibition rate (compared to model control group),"[4]; D21, cisplatin 3, GLP-4 low-dose 50 mg/kg, listed as cisplatin, 50 mg/kg",83.9%
same,Relative tumor growth inhibition rate (compared to model control group),"[4]; D24, cisplatin 3, GLP-4 low-dose 50 mg/kg, 50 mg/kg",85.3^+ %
same,Relative tumor growth inhibition rate (compared to model control group),"[4]; D24, cisplatin 3, GLP-4 low-dose 50 mg/kg, listed as cisplatin, 50 mg/kg",85.3%
same,Relative tumor growth inhibition rate (compared to model control group),"[4]; D27, cisplatin 3, GLP-4 low-dose 50 mg/kg, 50 mg/kg",84.3^+ %
same,Relative tumor growth inhibition rate (compared to model control group),"[4]; D27, cisplatin 3, GLP-4 low-dose 50 mg/kg, listed as cisplatin, 50 mg/kg",84.3%
same,Tumor growth inhibition rate (%) vs. the model control group,[4]; cisplatin group,88.7%
same,Tumor index,[4]; cisplatin group,2.8 ± 2.1^+ %
same,Tumor growth inhibition rate compared to the model control group,"[4]; tumor weight, cisplatin 3, GLP-4 low-dose 50 mg/kg",88.7%
